Measured values taken from US20240342121A1, “THE USE OF BETA-HYDROXYBUTYRATES FOR THE TREATMENT OR PREVENTION OF ANEURYSMS AND DISSECTIONS” (priority 2021, published 2024).
“Also recorded” adds a separate entry of the source.

Experiments:
senescent SMCs [1] = test: Flow cytometry (FACS) apoptosis analysis, PI and Annexin V; type: cell-based; conditions: FIGS. 2B, 2C
Method: (§1) FIGS. 2A-2L. (a) Cytotoxicity assay of normal smooth muscle cells (NS) and senescent smooth muscle cells (SMCs). Replicative senescent SMCs (RS) and premature senescent SMCs, stimulated by H2O2 (HP), arsenic (Ars), and Nutlin 3a (Nut) treatment were treated with βHB, s-βHB, and ABT-737. (b) Flow cytometry analysis of apoptosis by βHB or s-βHB in radiation (10 Gy)-induced senescent SMC. (c) Quantitation of apoptotic cell and senescent cell after treating βHB and s-βHB in radiation-induced senescent SMC. (d) Representative aorta image of AII-infused mice with post-treatment of ABT-737, βHB and s-βHB. (e) External diameter of abdominal aorta infused with AII and post-treated with ABT-737 βHB and s-βHB. (f) SA-βGal activity assay of the whole aorta infused with AII, and post-treated with ABT-737, KD, or KE. (g) Quantitation of senescent area on aorta of AII-infused mice, and post-treated with KD, KE and ABT-737. (h) TUNEL assay on the abdominal aorta of AII infused mice, and treated with ABT-737, βHB, or s-βHB. SM-α Actin (SMA) and DAPI are co-stained after TUNEL reaction. (i) Caspase 3 activity assay on normal SMCs (NC) treated with βHB, or s-βHB, and ABT-737 comparing to normal cells pretreated with Nutlin-3a. (j) Caspase 3 activity assay on senescent SMCs (SNC) treated with βHB, or s-βHB, and ABT-737 compared to senescent cells pretreated with pifithrin-α. […]

CaCl2-induced AAA [2] = test: CaCl2-induced AAA animal model, post-treatment; type: in vivo, mouse
Method: FIGS. 5A-5J. (a) Representative image of aorta which developed CaCl2)-induced AAA, and post-treated with KD, KE, βHB, s-βHB, or ABT-737. KD is provided to mice for 4 weeks, KE is administrated with drinking water, βHB, s-βHB or ABT-737 are IP injected for 2 weeks with 48h intervals. (b) Incidence of AAA by CaCl2) treatment and proportion of mice recovered from the AAA after post-treatment of KD, KE, βHB and s-βHB for 2 weeks. (c) Time-dependent observation of inner diameter after CaCl2) treatment and post-treatment of KD or KE (28˜56 days after surgery). (d) Comparison of ultrasound images of CaCl2)-induced AAA to the identical aorta post-treated with βHB for 2 weeks. (e) H&E staining of aorta from the mice developed with CaCl2)-induced AAA, and post-treated with KD, KE, βHB, and s-βHB. (f) SA β-Gal activity assay on aorta which developed CaCl2)-induced AAA, and post-treated with KD, KE, βHB, s-βHB, or ABT-737. (g) Quantitation of senescent area on aorta developed with CaCl2)-induced AAA, and post-treated with KD, KE, βHB, s-βHB. (h) Verhoeff Van Gieson/EVG staining of abdominal aorta developed with CaCl2)-induced AAA, post-treated with KD, KE, βHB and s-βHB. (i) Average number of elastic fibers on abdominal aorta presented at FIG. 5H. (j) Measurement of Pulse Wave Velocity (PWV) on CaCl2)-infused mice with post-treatment of KD, KE, βHB, and s-βHB.
To confirm the possibility that the therapeutic effect of βHB on AAA is not only applied to AII-induced AAA, the CaCl2)-induced AAA animal model was also examined as well (FIG. 5A).
To further validate the therapeutic efficacy of s-βHB on aneurysms, we used a CaCl2-induced AAA animal model as well as an angiotensin II infusion model. […] Two-way ANOVA, s-βHB vs βHB, #P<0.01, n=10. Since the elimination of senescent SMCs is critical for the recovery of AAA, we investigated that s-βHB is also effective to remove senescent cells in CaCl2)-induced aneurysms. […] Student's T-test for s-βHB vs βHB, ^#P<0.05, n=8.

[3] = tested on: Oct4 overexpressed senescent SMCs; test: Oct4 overexpressed senescent SMCs (SA β-Gal, Western blot); type: cell-based; conditions: Oct4 overexpression by CRISPR-dCas9-VP64, FIG. 14A
From the text: FIGS. 14A-14B show (a) SA β-Gal activity on Oct4 overexpressed SMCs with or without βHB treatment (2 days). Irradiated SMCs were infected by Lentivirus containing Crispr-dCas9-VP64_Oct4 plasmid prior to treating βHB. The arrow indicates localized senescent cell mass. (b) Western blot analysis after lentivirus (Crispr-dCas9-VP64_Oct4) infection into senescent SMCs without βHB treatment for 1 day or 2 days.
We proposed that Oct4 upregulation in senescence forms senescent spheroid-like cell mass and asymmetric configuration of aneurysms. To validate our central hypothesis, we overexpressed Oct4 in senescent SMCs using the CRISPR-dCas9-VP64 system to determine the role of Oct4. […] Localized increase of senescence may be highly associated with asymmetric dilation of aneurysms. […] We supposed that βHB prevents or reverses Oct4-induced senescence of SMCs, consequently reducing the size of aneurysms. To investigate the role of βHB in aneurysms, we assess the possibility of cellular reprogramming in senescent SMCs in the condition of Oct4 overexpression. […] In particular, a moderate increase of FAP (Fibroblast Activation Protein) provides a potential for reprogramming resulting in transdifferentiation of SMCs to myofibroblast. Recovered SM22 expression in Oct4 overexpressed senescent SMCs supposed that βHB converts the Oct4 function in dedifferentiation into a reprogramming-related role. We considered an βHB-induced epigenetic alteration of senescent cells contributing to Oct4-dependent cellular reprogramming based on this unique observation.

senescent SMCs [4] = test: Cellular viability (cytotoxicity) assay of senescent and normal SMCs; type: cell-based; conditions: premature senescence by H2O2, Arsenite or Nutlin 3a, FIG. 2A
Method: as §1, with “reaction.” for “reaction. (i) Caspase 3 activity assay on normal SMCs (NC) treated with βHB, or s-βHB, and ABT-737 comparing to normal cells pretreated with Nutlin-3a. (j) Caspase 3 activity assay on senescent SMCs (SNC) treated with βHB, or s-βHB, and ABT-737 compared to senescent cells pretreated with pifithrin-α.”
The clearance of senescent cells that accumulate during the aneurysm development is required to reduce the volume of aneurysm plaque. Thus, the senotherapeutic potential of βHB to reverse AAA progression was evaluated. […]

[5] = in vivo
From the text: We established an in vivo tolerance test of βHB and s-βHB (FIGS. 9A and 9B). […] The reduction of the inner diameter of the aortic wall is also dramatic in the treatment of s-βHB in FIG. 9F (Two-way ANOVA, ^###P<0.005, n=10).

[6] = tested on: angiotensin II (AII)-induced AAA; test: AII-induced AAA mouse model, post-treatment; type: in vivo; conditions: injection every other day for two weeks, FIG. 2E
CaCl2-induced AAA [7] = test: CaCl2-induced AAA animal model, post-treatment; type: in vivo, mouse; conditions: n=10, FIG. 5C
[8] = tested on: angiotensin II (AII)-induced AAA; test: AII-induced AAA mouse model, post-treatment; type: in vivo
From the text: To determine if senescence is a major cause of aneurysm development, the association between senescence and aneurysms using the angiotensin II (AII)-induced AAA model was investigated. Mice were infused AII for four weeks using osmotic mini-pump implantation into Apoe^−/− transgenic mouse.
To investigate the therapeutic potential of ketotherapy for abdominal aortic aneurysm (AAA), Ketogenic-diet (KD) and Ketone-ester (KE) were provided to angiotensin II (AII)-induced mouse model of AAA (FIG. 6). […] After completing AII infusion, the mice were post-treated with KD and KE for two to four weeks.
To investigate the time-dependent reduction of aorta diameter, the inner diameter of the aorta using ultrasound analysis was measured.

C[C@H](O)CC(=O)O [s-βHB, (S)-3-hydroxybutyrate]
apoptosis of senescent SMCs (senescent SMCs [1]): more effectively than βHB
recovery from CaCl2-induced AAA (CaCl2-induced AAA [2]; FIGS. 5A and 5B): effectively reversed aneurysms
senescent cells, SA β-gal assay (CaCl2-induced AAA [2]; FIGS. 5F and 5G): significantly reduced senescent cells
localized senescence, SA β-Gal activity [3]: significantly reverses or prevents the development of localized senescence
number of senescent SMCs versus normal SMCs (senescent SMCs [4]): selectively reduced the number of senescent SMCs and not normal SMCs; also recorded: significantly reduced
half-life [5]: 2 h
external diameter of the abdominal aorta [6]: significantly reduced; also recorded: strongly reduced
time-dependent reduction of the external diameter of the aortic wall (CaCl2-induced AAA [7]): more effective than βHB
TUNEL assay, apoptosis of senescent plaque in the aneurysm ([8]; FIG. 2H): induced targeted apoptosis of senescent plaque
lesion area ([8]; FIG. 9G): relatively more effective than βHB
body weight and lipids levels ([8]; FIGS. 9H-9J): no significant alteration
recovery rate of aneurysms ([8]; compared to βHB): significant improvement in the recovery rate of aneurysms compared to the βHB treatment
AAA rate after post-treating ([8]; incidence of AAA by angiotensin II infusion 67%, n=10, FIG. 9D): 27%
reduction of the inner diameter of the aortic wall ([8]; n=10, FIG. 9F): dramatic
